Experimental data published in patent US12552783B2, “Modulators of proteolysis and associated methods of use” (Arvinas Operations, Inc., priority 2018, dated 2026).

Biological target: KRas (Homo sapiens, UniProt P01116, G12C)
Assay: KRas degradation in NCI-H2030 cells by Western blot, normalized to GAPDH (data of Table 14)
Assay type: cell-based
Parameters: host or cells: NCI-H2030
Details: H2030 cells; for Percent Degradation at Indicated Concentration (μM): 0.3: 0.3 μM; for Percent Degradation at Indicated Concentration (μM): 1: 1 μM; for Percent Degradation at Indicated Concentration (μM): 3: 3 μM; for Dmax: NCI-H2030
Method in brief: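 Cells serum-starved 24 h, then treated at 0.3, 1 and 3 μM in 0.1% DMSO, 24 h for VHL-based compounds and 72 h for others. Lysates (10 μg protein) immunoblotted; KRas normalized to GAPDH, degradation visually estimated below 25% or quantified versus DMSO lane, giving DC50 and DMax.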

SMILES | Percent Degradation at Indicated Concentration (μM): 0.3 | Percent Degradation at Indicated Concentration (μM): 1 | Percent Degradation at Indicated Concentration (μM): 3 | Dmax
CCC(=O)N1CCN(c2nc(NCCC(=O)N(C)CCOCCOc3ccc4c(c3)C(=O)N(C3CCC(=O)NC3=O)C4=O)nc3c(F)c(-c4cc(O)cc5ccccc45)c(Cl)cc23)CC1 (centres unmarked) [compound 47, 3-((6-chloro-8-fluoro-7-(3-hydroxynaphthalen-1-yl)-4-(4-propionylpiperazin-1-yl)quinazolin-2-yl)amino)-N-(2-(2-((2-(2,6-dioxopiperidin-3-yl)-1,3-dioxoisoindolin-5-yl)oxy)ethoxy)ethyl)-N-methylpropanamide] | C (C ≤ 35) | C (C ≤ 35) | C (C ≤ 35) | ≤ 35%
CCC(=O)N1CCN(c2nc(NCCC(=O)N(C)CCOCCOCCOc3ccc4c(c3)C(=O)N(C3CCC(=O)NC3=O)C4=O)nc3c(F)c(-c4cc(O)cc5ccccc45)c(Cl)cc23)CC1 (centres unmarked) [compound 48, 3-((6-chloro-8-fluoro-7-(3-hydroxynaphthalen-1-yl)-4-(4-propionylpiperazin-1-yl)quinazolin-2-yl)amino)-N-(2-(2-(2-((2-(2,6-dioxopiperidin-3-yl)-1,3-dioxoisoindolin-5-yl)oxy)ethoxy)ethoxy)ethyl)-N-methylpropanamide] | C (C ≤ 35) | C (C ≤ 35) | C (C ≤ 35) | ≤ 35%
CCC(=O)N1CCN(c2nc(NCCC(=O)N(C)CCOCCOCCOCCOc3ccc4c(c3)C(=O)N(C3CCC(=O)NC3=O)C4=O)nc3c(F)c(-c4cc(O)cc5ccccc45)c(Cl)cc23)CC1 (centres unmarked) [compound 49, 3-((6-chloro-8-fluoro-7-(3-hydroxynaphthalen-1-yl)-4-(4-propionylpiperazin-1-yl)quinazolin-2-yl)amino)-N-(2-(2-(2-(2-((2-(2,6-dioxopiperidin-3-yl)-1,3-dioxoisoindolin-5-yl)oxy)ethoxy)ethoxy)ethoxy)ethyl)-N-methylpropanamide] | C (C ≤ 35) | C (C ≤ 35) | C (C ≤ 35) | ≤ 35%
CCC(=O)N1CCN(c2nc(NCCC(=O)N(C)CCOCCOCCOCCOCCOc3ccc4c(c3)C(=O)N(C3CCC(=O)NC3=O)C4=O)nc3c(F)c(-c4cc(O)cc5ccccc45)c(Cl)cc23)CC1 (centres unmarked) [compound 50, 3-((6-chloro-8-fluoro-7-(3-hydroxynaphthalen-1-yl)-4-(4-propionylpiperazin-1-yl)quinazolin-2-yl)amino)-N-(14-((2-(2,6-dioxopiperidin-3-yl)-1,3-dioxoisoindolin-5-yl)oxy)-3,6,9,12-tetraoxatetradecyl)-N-methylpropanamide] | C (C ≤ 35) | C (C ≤ 35) | C (C ≤ 35) | ≤ 35%
CCC(=O)N1CCN(c2nc(NCCC(=O)N(C)CCOCCOc3ccc4c(c3)CN(C3CCC(=O)NC3=O)C4=O)nc3c(F)c(-c4cc(O)cc5ccccc45)c(Cl)cc23)CC1 (centres unmarked) [compound 51, 3-((6-chloro-8-fluoro-7-(3-hydroxynaphthalen-1-yl)-4-(4-propionylpiperazin-1-yl)quinazolin-2-yl)amino)-N-(2-(2-((2-(2,6-dioxopiperidin-3-yl)-1-oxoisoindolin-5-yl)oxy)ethoxy)ethyl)-N-methylpropanamide] | C (C ≤ 35) | C (C ≤ 35) | C (C ≤ 35) | ≤ 35%
